Results published in patent publication US20240100201A1, “Labeling precursors and radiotracers for nuclear medicine diagnosis and therapy of prostate cancer-induced bone metastases” (SCV-SpezialChemikalienVertrieb GmbH, priority 2021, published 2024).
Where two headings read alike, the source gives them in different places. Each block holds one molecule with its values, some of them ahead of it.

What was measured:
PSMA [1] = molecular target: T1, PSMA (Homo sapiens, UniProt Q04609); test: cell-based competitive assay on LNCaP cells (PSMA affinity, IC50); type: binding; settings: 45 min, 68Ga-labeled PSMA reference compound
T1 construct: PSMA-positive LNCaP cells from Sigma-Aldrich; host or cells: LNCaP cells
T1 sequence (Q04609 whole entry): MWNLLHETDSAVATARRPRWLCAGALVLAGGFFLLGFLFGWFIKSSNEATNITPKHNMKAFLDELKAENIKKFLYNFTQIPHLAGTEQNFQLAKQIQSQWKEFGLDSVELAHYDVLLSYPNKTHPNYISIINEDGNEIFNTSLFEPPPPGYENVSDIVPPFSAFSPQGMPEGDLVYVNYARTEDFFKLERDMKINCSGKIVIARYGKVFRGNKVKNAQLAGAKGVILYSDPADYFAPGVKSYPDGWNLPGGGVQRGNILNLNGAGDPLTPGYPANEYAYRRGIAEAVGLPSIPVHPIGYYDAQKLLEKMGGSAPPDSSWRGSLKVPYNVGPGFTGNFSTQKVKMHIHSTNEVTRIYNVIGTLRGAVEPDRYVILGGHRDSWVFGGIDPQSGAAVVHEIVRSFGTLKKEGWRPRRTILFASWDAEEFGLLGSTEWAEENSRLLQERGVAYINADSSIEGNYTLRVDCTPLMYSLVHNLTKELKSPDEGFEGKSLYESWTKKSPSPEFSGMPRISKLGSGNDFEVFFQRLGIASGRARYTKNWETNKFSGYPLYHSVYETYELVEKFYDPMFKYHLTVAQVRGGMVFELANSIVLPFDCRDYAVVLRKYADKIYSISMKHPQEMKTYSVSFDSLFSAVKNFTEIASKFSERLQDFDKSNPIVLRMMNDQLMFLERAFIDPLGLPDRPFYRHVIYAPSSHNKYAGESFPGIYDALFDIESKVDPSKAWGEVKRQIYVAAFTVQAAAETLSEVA
Description: Using a cell-based assay, the affinity of the KuE targeting vector with a lipophilic linker—analogously to PSMA-617—and with a squaric acid linker was examined using the compounds NH2.DOTAGA.KuE-617 and NH2.DOTAGA.QS.KuE (structural formulae (8) and (10) in scheme 32).
For the assay, LNCaP cells were pipetted into multiwell plates (Merck Millipore Multiscreen™). To the compounds to be analyzed, in increasing concentrations, was in each case added a defined amount or concentration of the reference compound ^68Ga[Ga]PSMA-with known Kdvalue, and the mixture was incubated in the wells with the LNCaP cells for 45 min. After washing several times, the cell-bound activity was determined.
In order to determine non-specific binding, an excess of the PSMA inhibitor 2-PMPA (2-(phosphonomethyl)[…]) was additionally added to all compounds, and they were subjected to the same LNCaP assay-as described above.

PSMA [2] = molecular target: T1, PSMA; test: competitive radioligand assay on PSMA-positive LNCaP cells (Ki); type: binding
Procedure: By means of comparative radioligand assays, binding affinity for PSMA is determined for the radiotracer or labeling precursor DOTA.L-Lys(SA.Pam)KuE-617 and reference structures. The Ki-value for [^natLu]Lu-DOTA.L-Lys(SA.Pam)KuE-617 corresponds roughly to the value for the labeling precursor DOTA.L-Lys(SA.Pam) KuE-617. […] Compared to DOTA.L-Lys.KuE-617—corresponding to structural formula (14) in scheme 31—the Ki of [^natLu]Lu-DOTA.L-Lys(SA.Pam)KuE-617 is greater by a factor of about 2. It can be seen from this that the squaric acid-pamidronate group reduces affinity for PSMA.
Non-active (cold) [natLu]Lu complexes are prepared by shaking a solution containing the labeling precursor DOTA-L-Lys(SA.Pam)-KuE-617 (371 μl, 1 mg/ml, 250 nmol) with LuCl3 (129 μl, 1 mg/ml, 375 nmol, metal to labeling precursor ratio 1.5:1) in 1 M ammonium acetate buffer at 95° C. for 2 hours. Complex formation is monitored by ESI-LC/MS.
PSMA binding affinity is determined by the competitive radioligand assay described by Benešová et al. (Benešová, M.; Schaefer, M.; Bauder-Wüst, U.; Afshar-Oromieh, A.; Kratochwil, C.; Mier, W.; Haberkorn, U.; Kopka, K.; Eder, M. Preclinical Evaluation of a Tailor-Made DOTA-Conjugated PSMA Inhibitor with Optimized Linker Moiety for Imaging and Endoradiotherapy of Prostate Cancer. J. Nucl. Med. 2015, 56 (6), 914-920.). For this purpose, PSMA-positive LNCaP cells from Sigma-Aldrich in RPMI 1640 (Thermo Fisher Scientific) supplemented with 10% fetal bovine serum (Thermo Fisher Scientific), 100 μg/ml streptomycin and 100 units/ml penicillin are cultured at 37° C. in 5% CO2. The LNCaP cells are incubated with increasing concentrations of solutions containing the labeling precursors in the presence of 0.75 nM [^68Ga]Ga-PSMA-10 for 45 min. Free radioactivity is removed by several washes with ice-cold PBS. The samples obtained are measured in a y counter (2480 WIZARD2 Automatic Gamma Counter, PerkinElmer). The measurement data are evaluated in GraphPad Prism 9 using non-linear regression.

[3] = adsorption isotherms on hydroxyapatite by the method of Langmuir and Freundlich; type: binding; settings: Langmuir-Freundlich
Procedure: For this purpose, the adsorption therms are determined by the method of Langmuir and Freundlich.
For comparison, schemes 23 and 24 show conjugates of the chelator NODAGA with squaric acid pamidronate (NODAGA.QS.Pam) and NODAGA with zoledronate (NODAGA.Zol), and also the respective coefficients of adsorption KLF, measured by the method of Langmuir and Freundlich.

[4] = lipophilicity, partition in n-octanol and PBS; type: physicochemical; settings: pH 7.4
Procedure: The lipophilicity of […] is determined by determining the partition equilibrium of the compound in a mixture of n-octanol and PBS.
LogD7.4 of the respective compound is determined via the partition coefficient in n-octanol and PBS. The labeling solution is adjusted to pH 7.4 and 5 MBq is diluted in 700 μl of n-octanol and 700 μl of PBS. It is shaken at 1500 rpm for 2 min and then centrifuged. 400 μl of the n-octanol phase and 400 μl of the PBS phase were each transferred to a new Eppendorf tube. 3-6 μl is then pipetted onto a TLC plate and analyzed using a phosphor imager. The logD7.4 is calculated based on the ratio of the activities of the two phases. The measurement of each phase is also repeated twice more with the sample of higher activity, such that three logD7.4 values can be obtained and an average can be calculated.

[5] = affinity for hydroxyapatite (HAP) of 177Lu-labeled compounds; type: binding; settings: ordinary HAP, 1 h room temperature
Procedure: Calcium-containing crystalline hydroxyapatite is an essential component of mammalian bones and is suitable as a model substrate for the in vitro study of bisphosphonate accumulation in healthy bone tissue and bone metastases. […] In contrast, […] is found to have an HAP-enriched fraction of only 1.2%. In order to determine selectivity, accumulation on HAP previously treated with excess pamidronate was additionally measured.
Hydroxyapatite (20 mg) is incubated in saline (1 ml) for 24 h. 50 μl of the radiotracer [^177Lu]Lu-DOTA-L-Lys(SA.Pam)-KuE-617 (5 MBq) or [^177Lu]Lu-PSMA-617 (5 MBq) is added. Each suspension is vortexed with a vortex mixer for 20 s and incubated at room temperature for 1 h. […] The radioactivity of the liquids and HAP-containing supernatants obtained is measured in each case with a curiemeter (Isomed 2010 activimeter, MED Nuclear-Medizintechnik Dresden GmbH). The binding of [^177Lu]Lu-DOTA-L-Lys(SA.Pam)-KuE-617 and [^177Lu]Lu-PSMA-617 is determined as a percentage of the activity absorbed on HAP. As a reference, the HAP binding of free Lu-177 is measured in an analogous manner. […] For this purpose, HAP (20 mg) in saline solution (1 ml) is incubated with pamidronate (100 mg) and the respective activities of [^177Lu]Lu-DOTA-L-Lys(SA.Pam)-KuE-617 and free Lu-177 are determined.

[6] = LNCaP cells, 0.75 nM [68Ga]Ga-PSMA-10, 45 min, read-out: PSMA Ki

IC50 (PSMA [1]): 20.6 ± 3.4 nM
Molecule: NCCN1CCN(CC(=O)O)CCN(C(CCC(=O)NCC2CCC(C(=O)NC(Cc3ccc4ccccc4c3)C(=O)NCCCCC(NC(=O)NC(CCC(=O)O)C(=O)O)C(=O)O)CC2)C(=O)O)CCN(CC(=O)O)CC1 (stereo not drawn) [NH2.DOTAGA.KuE-617]

Molecule: O=C(O)CCC(NC(=O)NC(CCCCNC(=O)C(Cc1ccc2ccccc2c1)NC(=O)C1CCC(CNC(=O)C(CCCCNc2c(NCCC(O)(P(=O)(O)O)P(=O)(O)O)c(=O)c2=O)NC(=O)CN2CCN(CC(=O)O)CCN(CC(=O)O)CCN(CC(=O)O)CC2)CC1)C(=O)O)C(=O)O [DOTA.L-Lys(SA.Pam)KuE-617]
Ki (PSMA [2]): 53 ± 4 nM

Ki (PSMA [2]; [6]): 20 ± 3 nM
Molecule: NCCCCC(NC(=O)CN1CCN(CC(=O)O)CCN(CC(=O)O)CCN(CC(=O)O)CC1)C(=O)NCC1CCC(C(=O)NC(Cc2ccc3ccccc3c2)C(=O)NCCCCC(NC(=O)NC(CCC(=O)O)C(=O)O)C(=O)O)CC1 [DOTA.L-Lys.KuE-617]

Molecule: O=C(O)CN1CCN(CC(=O)O)CCN(C(CCC(=O)NCCNc2c(NCCC(O)(P(=O)(O)O)P(=O)(O)O)c(=O)c2=O)C(=O)O)CC1 (stereo not drawn) [NODAGA.QS.Pam]
coefficient of adsorption KLF compared with NODAGA.Zol [3]: about three times greater

Molecule: O=C(O)CCC(NC(=O)NC(CCCCNC(=O)C(Cc1ccc2ccccc2c1)NC(=O)C1CCC(CNC(=O)CCC(C(=O)O)N2CCN(CC(=O)O)CCN(CCNc3c(NCCC(O)(P(=O)(O)O)P(=O)(O)O)c(=O)c3=O)CCN(CC(=O)O)CC2)CC1)C(=O)O)C(=O)O (stereo not drawn) [Pam.SA.DOTAGA.KuE-617]
IC50 (PSMA [1]): 49.8 ± 10 nM

LogD7,4 (n-octanol/PBS) [4]: −2.2 ± 0.20
Molecule: [^177Lu]Lu-PSMA-617
proportion bound to HAP [5]: 1.2%

Ki (PSMA [2]; [6]): 7 ± 1 nM
Molecule: O=C(O)CCC(NC(=O)NC(CCCCNC(=O)C(Cc1ccc2ccccc2c1)NC(=O)C1CCC(CNC(=O)CN2CCN(CC(=O)O)CCN(CC(=O)O)CCN(CC(=O)O)CC2)CC1)C(=O)O)C(=O)O (stereo not drawn) [PSMA-617, reference compound]

IC50 (PSMA [1]): 20.2 ± 3.5 nM
Molecule: NCCN1CCN(CC(=O)O)CCN(C(CCC(=O)NCCNc2c(NCCCCC(NC(=O)NC(CCC(=O)O)C(=O)O)C(=O)O)c(=O)c2=O)C(=O)O)CCN(CC(=O)O)CC1 (stereo not drawn) [NH2.DOTAGA.QS.KuE]
